# From patent US20210147507A1, “METHODS TO AUGMENT OR ALTER SIGNAL TRANSDUCTION” (Bellicum Pharmaceuticals, Inc., priority 2017, published 2021)
# Numbering of substitutions follows the chain as printed. Numbers in names are those of the source. Where two headings read alike, the source gives them in different places.
# B1: C403P (protein)
# chain: GFGDVGALESLRGNADLAYILSMEPCGHCLIINNVNFCRESGLRTRTGSNIDCEKLRRRFSSLHFMVEVKGDLTAKKMVLALLELARQDHGALDCCVVVILSHGCQASHLQFPGAVYGTDGCPVSVEKIVNIFNGTSCPSLGGKPKLFFIQACGGEQKDHGFEVASTSPEDESPGSNPEPDATPFQEGLRTFDQLDAISSLPTPSDIFVSYSTFPGFVSWRDPKSGSWYVETLDDIFEQWAHSEDLQSLLLRVANAVSVKGIYKQMPGPFNFLRKKLFFKTSASRA
# B2: S144A (protein)
# chain: B1 chain with S10A, P269C
# B3: S144D (protein)
# chain: B1 chain with S10D, P269C
# B4: T317S (protein)
# chain: B1 chain with T183S, P269C
# B5: S196D (protein)
# chain: B1 chain with S62D, P269C
# Assays:
# [1] = biological target: wt FRB (K2095 T2098 W2101) (Homo sapiens, UniProt P42345+P62942); conditions: cited from earlier work
# Sequence of wt FRB (K2095 T2098 W2101) (P42345 2012-2144 limits assumed): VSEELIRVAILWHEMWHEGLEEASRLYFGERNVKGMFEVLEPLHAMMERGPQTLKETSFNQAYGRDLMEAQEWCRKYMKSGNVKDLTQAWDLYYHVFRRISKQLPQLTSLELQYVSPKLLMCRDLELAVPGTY
# Sequence of wt FRB (K2095 T2098 W2101) (P62942 2-108 limits assumed): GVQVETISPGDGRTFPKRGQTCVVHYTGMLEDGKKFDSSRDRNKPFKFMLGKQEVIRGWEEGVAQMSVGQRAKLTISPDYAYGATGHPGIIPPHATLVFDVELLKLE
# FRB-PLF = FRB-PLF (Homo sapiens, UniProt P42345+P62942, K2095P/T2098L/W2101F); conditions: cited from earlier work
# Sequence of FRB-PLF (P42345 2012-2144 K2095P/T2098L/W2101F limits assumed): as the sequence (P42345 2012-2144 limits assumed) above, with K84P, T87L, W90F counted along it
# Sequence of FRB-PLF (P62942 2-108 limits assumed): as the sequence (P62942 2-108 limits assumed) above
# [2] = system: CD3+ΔCD19+ iCasp9 T cells / GvHD; experiment: Phase I clinical trial of allodepleted T cells transduced with iCasp9 after haploidentical stem cell transplantation; type: in vivo, human
# Source text: This example presents results of a phase 1 clinical trial using an alternative suicide gene strategy. Briefly, donor peripheral blood mononuclear cells were co-cultured with recipient irradiated EBV-transformed lymphoblastoid cells (40:1) for 72 hrs., allodepleted with a CD25 immunotoxin and then transduced with a retroviral supernatant carrying the iCasp9 suicide gene and a selection marker (ΔCD19); ΔCD19 allowed enrichment to >90% purity via immunomagnetic selection.
# Patients developing grade 1 GvHD were treated with 0.4 mg/kg AP1903 as a 2-hour infusion.
# Three patients received iCasp9^+ T cells after haplo-CD34^+ stem cell transplantation (SCT), at dose levels between about 1×10^6 to about 3×10^6 cells/kg.
# [3] = system: HPAC pancreatic cancer cells; experiment: T cell anti-tumor assay: PSCA CAR-T cells with iM-X cocultured with HPAC-RFP cells (IncuCyte); type: cell-based, human; conditions: 1 nM
# Method: The HPAC PSCA^+ tumor cells were stably labeled with nuclear-localized RFP protein using the NucLight™ Red Lentivirus Reagent (Essen Bioscience, 4625). To set up the coculture, 4000 HPAC-RFP cells were seeded per well of 96-well plates in 100 μl of CTL medium without IL-2 for at least 4 hours to allow tumor cells to adhere. After transduction with the appropriate retrovirus and having been allowed to rest for at least 7 days in culture, T were seeded according to various E:T ratios in the HPAC-RFP-containing 96-well plates. […] Each plate was set up in duplicates, one plate to monitor with the IncuCyte and one plate for supernatant collection for ELISA assay on day 2. The plates were centrifuged for 5 min at 400×g and placed inside the IncuCyte (Dual Color Model 4459) to monitor red fluorescence (and green fluorescence if T cells were labeled with GFP-Ffluc) every 2-3 hours for a total of 7 days at 10× objective. Image analysis was performed using the “HPAC-RFP-_TcellsGFP_10×_MLD” processing definition. On day 7, HPAC-RFP cells were analyzed using the “Red Object Count (1/well)” metric. Also on day 7, 0 or 10 nM of suicide drug were added to each well of the coculture and placed back in the IncuCyte to monitor T cell elimination. On day 8, Tcell-GFP cells were analyzed using the “Total Green Object Integrated Intensity” metric. […]
# [4] = cited from earlier work; for safety and tolerability (in words): healthy volunteers
# [5] = biological target: wild-type phenylalanine 36 FKBP12 (Homo sapiens, UniProt P62942); conditions: cited from earlier work
# Sequence of wild-type phenylalanine 36 FKBP12 (P62942 whole entry): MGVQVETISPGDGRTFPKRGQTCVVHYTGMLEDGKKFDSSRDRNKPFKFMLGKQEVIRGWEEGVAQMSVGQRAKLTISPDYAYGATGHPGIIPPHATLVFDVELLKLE
# cells = experiment: Rimiducid amount needed in vitro for effective signaling of cells; type: cell-based
# Method: This equates to 14-140 μg/L or ˜0.014-0.14 mg/kg ([…]). The dosage may vary according to the application, and may, in certain examples, be more in the range of 0.1-10 nM, or in the range of 50-150 nM, 10-200 nM, 75-125 nM, 100-500 nM, 100-600 nM, 100-700 nM, 100-800 nM, or 100-900 nM.
# FRB-KTF = FRB-KTF (Homo sapiens, UniProt P42345+P62942, W2101F); conditions: cited from earlier work
# Sequence of FRB-KTF (P42345 2012-2144 W2101F): as the sequence (P42345 2012-2144 limits assumed) above, with W90F counted along it
# Sequence of FRB-KTF (P62942 2-108): as the sequence (P62942 2-108 limits assumed) above
# [6] = system: chimeric Caspase-9 polypeptide; experiment: Caspase-9 mutant classes and basal activity (Table 5); type: cell-based; conditions: Caspase-9 mutant class; for Basal Activity: basal (ligand-independent) signaling compared with unmodified chimeric Caspase-9
# Sequence of chimeric Caspase-9 polypeptide (P62942 2-108 F37V limits assumed): as the sequence (P62942 2-108 limits assumed) above, with F36V counted along it
molecule,measurement,setting,value
CO[C@@H]1C[C@H](C[C@@H](C)[C@@H]2CC(=O)[C@H](C)/C=C(\C)[C@@H](O)[C@@H](OC)C(=O)[C@H](C)C[C@H](C)/C=C/C=C/C=C(\C)[C@H](OC(C)C)C[C@@H]3CC[C@@H](C)[C@@](O)(O3)C(=O)C(=O)N3CCCC[C@H]3C(=O)O2)CC[C@H]1O [R-Isopropoxyrapamycin],EC50,[1],~300 nM
same,EC50,FRB-PLF,~8.5 nM
"CC[C@H](C(=O)N1CCCC[C@H]1C(=O)O[C@H](CCc1ccc(OC)c(OC)c1)c1cccc(OCC(=O)NCCNC(=O)COc2cccc([C@@H](CCc3ccc(OC)c(OC)c3)OC(=O)[C@@H]3CCCCN3C(=O)[C@@H](CC)c3cc(OC)c(OC)c(OC)c3)c2)c1)c1cc(OC)c(OC)c(OC)c1 (relative stereo) [rimiducid, 2-Piperidinecarboxylic acid, 1-[(2S)-1-oxo-2-(3,4,5-trimethoxyphenyl)butyl]-, 1,2-ethanediylbis [imino(2-oxo-2,1-ethanediyl)oxy-3,1-phenylene[(1R)-3-(3,4-Dimethoxyphenyl)propylidene]] ester, [2S-[1(R*),2R*[S*[S*[1(R*),2R1]]]]]-(9C1)]",time to resolution of skin and liver GvHD,[2]; after rimiducid administration,≤ 24 h
same,ablation of CD3+ΔCD19+ cells,"[2]; within 30 minutes of infusion, two patients with grade I/II GvHD",> 90%
same,further reduction of CD3+ΔCD19+ cells,[2]; within 24 hours,further log reduction
same,effect on cell growth of tumor or T cell,[3]; Not Transduced (NT) primary T cells,did not affect the cell growth
same,effect on T cell efficacy,[3]; T cells expressing the inducible chimeric signaling polypeptide,augmented T cell efficacy
same,duration of the adverse event,[4]; 1.0 mg/kg,32 min
same,onset of the adverse event after start of infusion,[4]; 1.0 mg/kg,3 min
same,mean Cmax,"[4]; 0.01-1.0 mg/kg dose range, infused IV over 2 hours",10 to 1275 ng/mL
same,plasma levels versus dose,[4]; 0.01-1.0 mg/kg,directly proportional to dose
same,adverse event considered possibly related,[4]; 1 volunteer at 1.0 mg/kg,vasodilatation
same,"plasma level, % of maximal concentration",[4]; 0.5 hours post-dose,18%
same,"plasma level, % of maximal concentration","[4]; 0.5 hours post-dose, listed as Rimiducid",approximately 18%
same,"plasma level, % of maximal concentration",[4]; 2 hours post-dose,~7%
same,"plasma level, % of maximal concentration",[4]; 10 hours post-dose,~1%
same,well-tolerated dose,[4]; Phase I study,up to 1 mg/kg
same,incidence of adverse events,[4]; following each treatment,very low
same,safety and tolerability (in words),[4]; 0.01-1.0 mg/kg,No significant adverse effects
same,safety and tolerability (in words),"[4]; 0.01-1.0 mg/kg, listed as AP1903",No serious adverse events
same,pharmacokinetic profile (in words),"[4]; human, in vivo",favorable pharmacokinetic profile
same,binding to FKBP12 (in words),[5],not able to bind
same,"amount needed for effective signaling, converted",cells,0.014 to 0.14 mg/kg
same,amount needed in vitro for effective signaling of cells,cells,10 to 100 nM
same,"amount needed for effective signaling, converted",cells; MW 1412 Da,14 to 140 µg/L
S-Butanesulfonamidorap [AP23050],EC50,[1],~2.7 nM
same,EC50,FRB-KTF,> 200 nM
B1,Catalytic activity (class 'Catalytically dead'),[6],dead
B2,Basal Activity,[6],Decreased
B3,Basal Activity,[6],Decreased
B4,Basal Activity,[6],Decreased
B5,Basal Activity,[6],Decreased
